Here are results for 20 compounds from US6841519B1, “Isoxazoline derivatives and herbicides containing the same as the active ingredient” (Kumiai Chemical Industry Co., Ltd., priority 1999, dated 2005).

Holding throughout (format): in vivo
In data set [1] the test system is Echinochloa oryzicola Vasing. (Eo). As to the kind of experiment: Test for herbicidal effect by paddy field soil treatment (Test Example 1). As to conditions: application amount (active ingredient) 100 g/10 a, examined at the 21st day from the treatment, index per Table 40. The gist of the method:
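Eo seeds sown in puddled paddy soil under 3 cm water; next day a water-diluted wettable powder was dropped onto the water surface at 100 g active ingredient per 10 ares. Herbicidal effect scored on a standard scale 21 days after treatment, greenhouse-grown.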

In another data set the test system is rice (Or). Description: Test for crop selectivity by paddy field soil treatment (Test Example 4), phytotoxicity to rice. As to conditions: transplanted two-leaf stage rice, 100 g/10 a active ingredient, 21st day. The protocol: (§1) [table] <Test Example 4> Test For Crop Selectivity By Paddy Field Soil Treatment A paddy field soil was filled in a plastic pot of 100 cm^2 and subjected to puddling. Seeds of Echinochloa oryzicola Vasing. (Eo) were sowed; two-leaf stage seedlings of rice (Or) were transplanted in a depth of 2 cm; and water was filled in a depth of 3 cm. Next day, wettable powders produced in accordance with the Formulation 1 were diluted with water and dropped on the water surface. The application amount of each wettable powder was 100 g per 10 ares in terms of the active ingredient. Then, breeding was made in a greenhouse. At the 21st day from the treatment, the phytotoxicity and herbicidal effect of each wettable powder were examined in accordance with the standard shown in Table 40.

Data set [2] deals with Echinochloa oryzicola Vasing. (Eo). As to the kind of experiment: Test for crop selectivity by paddy field soil treatment (Test Example 4), herbicidal effect on Eo. As to conditions: 100 g/10 a active ingredient, 21st day. The protocol: as §1
Data set [3] deals with Setaria viridis (L.) Beauv. (Se). Description: Test for herbicidal effect by upland field soil treatment (Test Example 2), Se. As to conditions: 100 g/10 a active ingredient, examined at 21st day. In outline: (§2)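 Echinochloa crus-galli and Setaria viridis were sown in upland field soil and covered, then the soil surface was sprayed with water-diluted wettable powder at 100 g active ingredient per 10 ares (100 liters per 10 ares). Plants were grown in a greenhouse and scored on a standard scale on day 21.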

Data set [4] relates to Echinochloa crus-galli (L.) Beauv. var. crusgall (Ec). Description: Test for herbicidal effect by upland field soil treatment (Test Example 2), Ec. As to conditions: 100 g/10 a active ingredient, examined at 21st day. In outline:
as §2

The test system of data set [5] is Echinochloa crus-galli (L.) Beauv. var. crusgalli (Ec). As to the kind of experiment: Test for herbicidal effect by upland foliage treatment (Test Example 3). As to conditions: 100 g/10 a active ingredient, examined at 14th day. The gist of the method:
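Potted upland-soil Ec seedlings grown 2 weeks in greenhouse, then foliage-sprayed with water-diluted wettable powder at 100 L per 10 ares, giving 100 g active ingredient per 10 ares. Herbicidal effect scored on a graded standard 14 days after treatment.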

Molecules are shown by their SMILES.

Regarding `CCC1(C)CC(S(=O)(=O)Cc2ccc(OC)cc2)=NO1` (centres unmarked) [Compound 1-230], the “Herbicidal effect to Eo” value in data set [1] and in data set [2] was 5 (A herbicidal effect or phytotoxicity of 90% or more) throughout. In addition, in the data set with rice (Or), the “Phytotoxicity to Or” value is recorded as 0 (A herbicidal effect or phytotoxicity of 0% to less than 10%).

As for `CCCC1(C)CC([S+]([O-])Cc2c(F)cccc2F)=NO1` (centres unmarked) [Compound 1-365], the “Herbicidal effect to Eo” value in data set [1] and in data set [2] was 5 (A herbicidal effect or phytotoxicity of 90% or more) in each case. For the same compound, the “Phytotoxicity to Or” value in the data set on rice (Or) is listed as 1 (A herbicidal effect or phytotoxicity of 10% to less than 30%).

On to `CC(C)C1(C)CC([S+]([O-])Cc2c(F)cccc2F)=NO1` (centres unmarked) [Compound 1-367], for which the “Herbicidal effect to Eo” value in data set [1] and in data set [2] was 5 (A herbicidal effect or phytotoxicity of 90% or more) each time. In addition, the “Phytotoxicity to Or” value in the data set on rice (Or) is listed as 1 (A herbicidal effect or phytotoxicity of 10% to less than 30%).

On to `CC1(Cc2ccccc2)CC(S(=O)(=O)Cc2c(F)cccc2F)=NO1` (centres unmarked) [Compound 1-377], for which the “Herbicidal effect to Eo” value in data set [1] and in data set [2] was 5 (A herbicidal effect or phytotoxicity of 90% or more) throughout. For the same compound, the “Phytotoxicity to Or” value in the data set with rice (Or) is 0 (A herbicidal effect or phytotoxicity of 0% to less than 10%).

On to `Fc1cccc(F)c1CSC1=NOC2CCCCC12` (centres unmarked) [Compound 1-386], for which the “Herbicidal effect to Eo” value in data set [1] and in data set [2] was 4 (A herbicidal effect or phytotoxicity of 70% to less than 90%) each time. The “Phytotoxicity to Or” value with rice (Or) is 0 (A herbicidal effect or phytotoxicity of 0% to less than 10%).

`CC1(COCc2c(F)cccc2F)CC(S(=O)(=O)Cc2c(F)cccc2F)=NO1` (centres unmarked) [Compound 1-401]: the “Herbicidal effect to Eo” value in data set [1] and in data set [2] was 5 (A herbicidal effect or phytotoxicity of 90% or more) each time. Moreover, the “Phytotoxicity to Or” value in the data set on rice (Or) is listed as 0 (A herbicidal effect or phytotoxicity of 0% to less than 10%).

Take `COc1cccc(C)c1CS(=O)(=O)C1=NOC(C)(C)C1` [Compound 1-583]: in data set [1], the “Herbicidal effect to Eo” value is reported as 5 (A herbicidal effect or phytotoxicity of 90% or more). In addition, the “Herbicidal effect to Se” value in data set [3] is recorded as 5 (A herbicidal effect or phytotoxicity of 90% or more). The “Herbicidal effect to Ec” value in data set [4] was 5 (A herbicidal effect or phytotoxicity of 90% or more); in data set [5], 4 (A herbicidal effect or phytotoxicity of 70% to less than 90%).

In the case of `CCOc1cccc(C(F)(F)F)c1CS(=O)(=O)C1=NOC(C)(C)C1` [Compound 1-585], the “Herbicidal effect to Eo” value in data set [1] is recorded as 5 (A herbicidal effect or phytotoxicity of 90% or more). Also, the “Herbicidal effect to Se” value in data set [3] is 5 (A herbicidal effect or phytotoxicity of 90% or more). Also, the “Herbicidal effect to Ec” value in data set [4] and in data set [5] was 5 (A herbicidal effect or phytotoxicity of 90% or more) throughout.

Turning to `CCOCc1ccccc1CS(=O)(=O)C1=NOC(C)(C)C1` [Compound 1-586], the “Herbicidal effect to Eo” value in data set [1] is listed as 5 (A herbicidal effect or phytotoxicity of 90% or more). Moreover, the “Herbicidal effect to Se” value in data set [3] is recorded as 5 (A herbicidal effect or phytotoxicity of 90% or more). The “Herbicidal effect to Ec” value in data set [4] and in data set [5] was 5 (A herbicidal effect or phytotoxicity of 90% or more) throughout.

As to `C=CCOc1ccccc1CS(=O)(=O)C1=NOC(C)(C)C1` [Compound 1-589], the “Herbicidal effect to Eo” value in data set [1] was 5 (A herbicidal effect or phytotoxicity of 90% or more). The “Herbicidal effect to Se” value in data set [3] is recorded as 5 (A herbicidal effect or phytotoxicity of 90% or more). In addition, the “Herbicidal effect to Ec” value in data set [4] was 5 (A herbicidal effect or phytotoxicity of 90% or more); in data set [5], 4 (A herbicidal effect or phytotoxicity of 70% to less than 90%).

For the compound `C#CCOc1cccc(Cl)c1CS(=O)(=O)C1=NOC(C)(C)C1` [Compound 1-591], the “Herbicidal effect to Eo” value in data set [1] is reported as 5 (A herbicidal effect or phytotoxicity of 90% or more). In data set [3], the “Herbicidal effect to Se” value is given as 5 (A herbicidal effect or phytotoxicity of 90% or more). Further, the “Herbicidal effect to Ec” value is 5 (A herbicidal effect or phytotoxicity of 90% or more) in data set [4] and 4 (A herbicidal effect or phytotoxicity of 70% to less than 90%) in data set [5].

For `CCOC(=O)c1ccccc1CS(=O)(=O)C1=NOC(C)(C)C1` [Compound 1-593], in data set [1], the “Herbicidal effect to Eo” value is recorded as 5 (A herbicidal effect or phytotoxicity of 90% or more). Moreover, in data set [3], the “Herbicidal effect to Se” value is 4 (A herbicidal effect or phytotoxicity of 70% to less than 90%). Also, the entries for the “Herbicidal effect to Ec” value in data set [4] and in data set [5] were 5 (A herbicidal effect or phytotoxicity of 90% or more) and 4 (A herbicidal effect or phytotoxicity of 70% to less than 90%), respectively.

As for `CC(C)OC(=O)c1ccccc1CS(=O)(=O)C1=NOC(C)(C)C1` [Compound 1-595], the “Herbicidal effect to Eo” value in data set [1] was 5 (A herbicidal effect or phytotoxicity of 90% or more). Moreover, the “Herbicidal effect to Se” value in data set [3] is 5 (A herbicidal effect or phytotoxicity of 90% or more). Further, the figures for the “Herbicidal effect to Ec” value in data set [4] and in data set [5] were 5 (A herbicidal effect or phytotoxicity of 90% or more) and 4 (A herbicidal effect or phytotoxicity of 70% to less than 90%), respectively.

On to `CCOc1cccc(C)c1CS(=O)(=O)C1=NOC(C)(C)C1` [Compound 1-602], for which the “Herbicidal effect to Eo” value in data set [1] is recorded as 5 (A herbicidal effect or phytotoxicity of 90% or more). In data set [3], the “Herbicidal effect to Se” value was 5 (A herbicidal effect or phytotoxicity of 90% or more). Also, the results for the “Herbicidal effect to Ec” value in data set [4] and in data set [5] were 5 (A herbicidal effect or phytotoxicity of 90% or more) and 4 (A herbicidal effect or phytotoxicity of 70% to less than 90%), respectively.

For `CCCOc1cccc(C)c1CS(=O)(=O)C1=NOC(C)(C)C1` [Compound 1-603], in data set [1], the “Herbicidal effect to Eo” value was 5 (A herbicidal effect or phytotoxicity of 90% or more). Also, in data set [3], the “Herbicidal effect to Se” value is listed as 5 (A herbicidal effect or phytotoxicity of 90% or more). Moreover, the “Herbicidal effect to Ec” value is 5 (A herbicidal effect or phytotoxicity of 90% or more) in data set [4] and 4 (A herbicidal effect or phytotoxicity of 70% to less than 90%) in data set [5].

As to `Cc1cccc(OC(C)C)c1CS(=O)(=O)C1=NOC(C)(C)C1` [Compound 1-604], the “Herbicidal effect to Eo” value in data set [1] is given as 5 (A herbicidal effect or phytotoxicity of 90% or more). For the same compound, in data set [3], the “Herbicidal effect to Se” value was 5 (A herbicidal effect or phytotoxicity of 90% or more). Further, the “Herbicidal effect to Ec” value in data set [4] and in data set [5] was 5 (A herbicidal effect or phytotoxicity of 90% or more) in each case.

On to `C=CCOc1cccc(C)c1CS(=O)(=O)C1=NOC(C)(C)C1` [Compound 1-606], for which the “Herbicidal effect to Eo” value in data set [1] is 5 (A herbicidal effect or phytotoxicity of 90% or more). Moreover, the “Herbicidal effect to Se” value in data set [3] is listed as 5 (A herbicidal effect or phytotoxicity of 90% or more). Further, the “Herbicidal effect to Ec” value in data set [4] is reported as 5 (A herbicidal effect or phytotoxicity of 90% or more); in data set [5], 4 (A herbicidal effect or phytotoxicity of 70% to less than 90%).

`C#CCOc1cccc(C)c1CS(=O)(=O)C1=NOC(C)(C)C1` [Compound 1-607]: the “Herbicidal effect to Eo” value in data set [1] is given as 5 (A herbicidal effect or phytotoxicity of 90% or more). Moreover, in data set [3], the “Herbicidal effect to Se” value is listed as 5 (A herbicidal effect or phytotoxicity of 90% or more). The “Herbicidal effect to Ec” value in data set [4] and in data set [5] was 5 (A herbicidal effect or phytotoxicity of 90% or more) throughout.

Consider `CC1(C)CC(S(=O)(=O)Cc2ccccc2OCC2CC2)=NO1` [Compound 1-608], for which the “Herbicidal effect to Eo” value in data set [1] is given as 5 (A herbicidal effect or phytotoxicity of 90% or more). Also, the “Herbicidal effect to Se” value in data set [3] is listed as 5 (A herbicidal effect or phytotoxicity of 90% or more). Also, the “Herbicidal effect to Ec” value in data set [4] and in data set [5] was 5 (A herbicidal effect or phytotoxicity of 90% or more) in each case.

As for `CC1(C)CC(S(=O)(=O)Cc2ccccc2OC2CCCC2)=NO1` [Compound 1-609], the “Herbicidal effect to Eo” value in data set [1] was 5 (A herbicidal effect or phytotoxicity of 90% or more). Further, the “Herbicidal effect to Se” value in data set [3] is reported as 5 (A herbicidal effect or phytotoxicity of 90% or more). In addition, the “Herbicidal effect to Ec” value in data set [4] and in data set [5] was 5 (A herbicidal effect or phytotoxicity of 90% or more) in each case.
